The target in one test is Protein Wnt-3a (Mus musculus, UniProt P27467). The test is described as follows: antagonism of Wnt3a pathway luciferase reporter – Wnt-LIGHT cells, luminescence, selectivity assay for Gli-SUFU antagonist project, dose response (AID 651570).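 Also: Wnt-LIGHT reporter cells stimulated with conditioned medium from Wnt3a-producing cells.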 Format: functional. To be noted: read-out: IC50_Mean. Background: In a reporter assay the amount or activity of a reporter protein is the signal.

In test [1] the target is T1, Rac GTPase-activating protein 1 (Homo sapiens, UniProt Q9H0H5).
T1 sequence (Q9H0H5 whole entry): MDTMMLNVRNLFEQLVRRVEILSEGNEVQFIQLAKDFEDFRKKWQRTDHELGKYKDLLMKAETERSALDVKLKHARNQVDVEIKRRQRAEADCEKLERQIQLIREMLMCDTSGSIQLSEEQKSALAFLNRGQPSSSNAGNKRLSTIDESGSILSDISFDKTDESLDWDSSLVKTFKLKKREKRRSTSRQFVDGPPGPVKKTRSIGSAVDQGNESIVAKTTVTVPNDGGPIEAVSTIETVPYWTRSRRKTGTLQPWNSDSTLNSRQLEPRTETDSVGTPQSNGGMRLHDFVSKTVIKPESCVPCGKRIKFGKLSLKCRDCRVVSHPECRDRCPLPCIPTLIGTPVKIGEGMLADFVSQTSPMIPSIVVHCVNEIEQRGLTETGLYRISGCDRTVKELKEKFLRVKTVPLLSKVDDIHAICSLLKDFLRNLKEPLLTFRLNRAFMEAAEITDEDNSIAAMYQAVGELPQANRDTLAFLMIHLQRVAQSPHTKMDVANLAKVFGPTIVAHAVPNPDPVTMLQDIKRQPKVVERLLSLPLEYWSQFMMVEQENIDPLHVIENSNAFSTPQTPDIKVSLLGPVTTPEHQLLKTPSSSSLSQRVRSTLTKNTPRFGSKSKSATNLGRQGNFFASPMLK
The test is described as follows: blockers of MgcRacGAP-driven Rac1 GTP hydrolysis – biochemical, ADP Hunter fluorescence, primary and confirmatory, confirmation (AID 624330). It counts as functional.

Test [2] is described as follows: viability loss in HeLa cells – cytotoxicity control for MgcRacGAP inhibitor project, dose response (AID 624300). Format: functional.
For test [3], the target named is T2, Corticotropin-releasing factor receptor 2/Corticotropin-releasing factor-binding protein (Homo sapiens, UniProt P24387+Q13324).
T2 sequence (Q13324 whole entry): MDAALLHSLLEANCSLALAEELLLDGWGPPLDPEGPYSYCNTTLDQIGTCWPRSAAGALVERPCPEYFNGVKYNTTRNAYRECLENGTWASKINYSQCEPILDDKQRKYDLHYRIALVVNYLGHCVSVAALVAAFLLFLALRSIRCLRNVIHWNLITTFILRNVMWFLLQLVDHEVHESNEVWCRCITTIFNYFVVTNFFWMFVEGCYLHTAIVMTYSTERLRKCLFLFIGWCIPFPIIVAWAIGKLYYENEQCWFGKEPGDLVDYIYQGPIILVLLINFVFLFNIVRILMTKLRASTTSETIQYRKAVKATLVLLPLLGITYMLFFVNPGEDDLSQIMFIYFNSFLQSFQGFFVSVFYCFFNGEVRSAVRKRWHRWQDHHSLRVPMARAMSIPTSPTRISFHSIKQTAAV
T2 sequence (P24387 whole entry): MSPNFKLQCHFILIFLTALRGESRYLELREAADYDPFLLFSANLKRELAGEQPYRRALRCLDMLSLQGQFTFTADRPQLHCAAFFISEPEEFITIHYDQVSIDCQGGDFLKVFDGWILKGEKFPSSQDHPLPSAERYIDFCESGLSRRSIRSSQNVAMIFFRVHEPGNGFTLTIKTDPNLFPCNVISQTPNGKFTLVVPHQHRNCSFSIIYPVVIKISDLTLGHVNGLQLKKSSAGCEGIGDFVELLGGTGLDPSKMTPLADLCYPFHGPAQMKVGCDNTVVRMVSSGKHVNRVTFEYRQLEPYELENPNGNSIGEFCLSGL
The test is described as follows: activators of CRF receptor 2 with binding protein – uHTS hits, confirmation (AID 602473). Format: functional. The conditions noted are these: read-out: EC50_Mean.

The next test concerns the target Phospholipase A2 (Homo sapiens, UniProt P04054). Format: functional.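 Also: confirmatory dose-response counterscreen on phospholipase A2, testing hits that came from an ultra-high-throughput screen for ATG4B inhibitors.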
The target of a further test is T3, Cysteine protease ATG4B (Homo sapiens, UniProt Q9Y4P1).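 Also: Fluorescence-based dose-response confirmation assay measuring inhibition of ATG4B activity.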
T3 sequence (Q9Y4P1 whole entry): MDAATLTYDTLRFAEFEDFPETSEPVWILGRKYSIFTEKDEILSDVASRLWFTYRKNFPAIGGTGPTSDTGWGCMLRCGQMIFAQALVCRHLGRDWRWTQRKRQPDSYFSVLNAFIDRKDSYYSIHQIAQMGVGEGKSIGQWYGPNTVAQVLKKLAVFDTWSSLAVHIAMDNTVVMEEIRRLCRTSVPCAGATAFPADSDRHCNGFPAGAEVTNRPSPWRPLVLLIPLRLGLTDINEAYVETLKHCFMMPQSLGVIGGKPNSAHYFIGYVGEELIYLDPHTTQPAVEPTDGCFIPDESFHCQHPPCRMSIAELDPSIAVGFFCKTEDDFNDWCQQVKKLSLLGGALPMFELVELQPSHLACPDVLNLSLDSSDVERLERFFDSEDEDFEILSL
It counts as functional.

For test [4], the target named is T4, Long-chain-fatty-acid--AMP ligase FadD28 (Mycobacterium tuberculosis, UniProt P9WQ59).
T4 sequence (P9WQ59 whole entry): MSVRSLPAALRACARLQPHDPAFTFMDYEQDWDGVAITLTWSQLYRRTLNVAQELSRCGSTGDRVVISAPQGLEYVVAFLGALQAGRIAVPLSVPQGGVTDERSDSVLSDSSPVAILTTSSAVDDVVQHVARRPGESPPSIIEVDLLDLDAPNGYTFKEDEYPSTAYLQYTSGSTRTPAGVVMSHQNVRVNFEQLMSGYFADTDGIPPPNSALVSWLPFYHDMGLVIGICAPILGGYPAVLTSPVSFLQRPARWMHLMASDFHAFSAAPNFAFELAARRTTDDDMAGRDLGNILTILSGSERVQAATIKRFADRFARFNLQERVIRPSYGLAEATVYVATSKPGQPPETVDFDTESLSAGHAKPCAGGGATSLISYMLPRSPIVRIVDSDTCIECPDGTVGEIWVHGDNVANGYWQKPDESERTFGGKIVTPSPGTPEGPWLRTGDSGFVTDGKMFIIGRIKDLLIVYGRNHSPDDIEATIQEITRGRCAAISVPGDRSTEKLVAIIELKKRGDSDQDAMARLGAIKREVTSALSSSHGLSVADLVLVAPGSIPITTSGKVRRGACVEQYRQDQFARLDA
Kind of test: Fluorescence polarization aasay to screen for inhibitors that compete for the binding of FadD28 to a bisubstrate Measured in Biochemical System Using Plate Reader - 2147-01_Inhibitor_Dose_CherryPick_Activity. Format: functional, Mycobacterium tuberculosis H37Rv. (In general: Fluorescence polarisation rises when a labelled molecule tumbles more slowly, as on binding a larger partner.)

Test [5] addresses 72 kDa type IV collagenase (Homo sapiens, UniProt P08253). Kind of test: Dose Response validation of uHTS RPN11 inhibitor hits using a MMP-2 Fluorescence assay. It counts as functional.
The target of a further test is Prothrombin (Bos taurus, UniProt P00735). The test is described as follows: thrombin protease inhibitors – biochemical, fluorescence polarization, uHTS hits, dose response (AID 602369). It counts as functional.
For test [6], the target named is 26S proteasome non-ATPase regulatory subunit 14 (Homo sapiens, UniProt O00487). Kind of test: inhibition of proteasome subunit RPN11 – biochemical, fluorescence polarization, uHTS hits, confirmation (AID 602368). It counts as functional.
Test [7] can be described thus: P. falciparum Dd2 growth inhibitors, dose response, SYBR Green, cherry-picked samples (AID 1159567). It counts as functional, cell-based.

Calls of active or inactive are those of the source. Numbered stars: 1 amine (or outer) side, 2 acyl side, 3 side chain; on linkers, the order of the positions; unused ones are H or OH. Square brackets hold non-standard residues; d marks the D form. Peptide text beside a SMILES is read from it. ξ: configuration not given here. X1 = CCCCCCC[C@H](O)C[C@@H](N[*:1])[C@@H](O)C(=O)[*:2]; X3 = COc1ccc(CCCC(N[*:1])C(=O)[*:2])cc1; ξThr(3R) = C[C@@H](O)C(N)C(=O)O; NMeN = CN[C@@H](CC(N)=O)C(=O)O; X2 = C/C=C(/N[*:1])C(=O)[*:2]; Dhb = C/C=C(\N)C(=O)O; Sar = CNCC(=O)O

Chain of 72 kDa type IV collagenase (P08253 whole entry): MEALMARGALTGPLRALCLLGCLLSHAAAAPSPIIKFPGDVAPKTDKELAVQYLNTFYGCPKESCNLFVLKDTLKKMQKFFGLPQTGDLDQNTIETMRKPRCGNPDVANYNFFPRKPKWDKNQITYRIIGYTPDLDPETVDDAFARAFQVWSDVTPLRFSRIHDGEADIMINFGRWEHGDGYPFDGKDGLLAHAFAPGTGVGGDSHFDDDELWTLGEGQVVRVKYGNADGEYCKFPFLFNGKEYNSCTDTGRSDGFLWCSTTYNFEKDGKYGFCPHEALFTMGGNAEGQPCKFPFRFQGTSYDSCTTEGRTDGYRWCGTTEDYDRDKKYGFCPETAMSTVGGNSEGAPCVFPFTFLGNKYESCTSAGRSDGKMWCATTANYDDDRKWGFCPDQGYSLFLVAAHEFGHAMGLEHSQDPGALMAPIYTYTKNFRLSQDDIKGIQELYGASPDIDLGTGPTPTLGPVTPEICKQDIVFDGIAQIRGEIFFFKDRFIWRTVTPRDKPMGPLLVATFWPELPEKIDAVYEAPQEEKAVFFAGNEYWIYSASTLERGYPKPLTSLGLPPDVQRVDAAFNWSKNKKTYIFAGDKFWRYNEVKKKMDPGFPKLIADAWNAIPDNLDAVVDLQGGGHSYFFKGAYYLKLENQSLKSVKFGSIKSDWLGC
Chain of 26S proteasome non-ATPase regulatory subunit 14 (O00487 whole entry): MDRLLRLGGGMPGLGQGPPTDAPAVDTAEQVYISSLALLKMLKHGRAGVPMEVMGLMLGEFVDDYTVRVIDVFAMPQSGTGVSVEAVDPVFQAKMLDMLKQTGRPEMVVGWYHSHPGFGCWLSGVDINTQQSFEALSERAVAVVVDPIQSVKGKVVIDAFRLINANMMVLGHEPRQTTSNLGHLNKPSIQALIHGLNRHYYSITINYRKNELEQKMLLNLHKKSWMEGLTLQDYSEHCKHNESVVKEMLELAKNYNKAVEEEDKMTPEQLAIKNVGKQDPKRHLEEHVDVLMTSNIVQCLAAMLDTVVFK
Chain of Phospholipase A2 (P04054 whole entry): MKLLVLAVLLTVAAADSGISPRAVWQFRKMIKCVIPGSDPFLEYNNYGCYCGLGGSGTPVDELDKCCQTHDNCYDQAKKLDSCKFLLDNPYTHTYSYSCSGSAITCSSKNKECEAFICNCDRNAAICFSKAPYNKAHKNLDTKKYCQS
Chain of Protein Wnt-3a (P27467 whole entry): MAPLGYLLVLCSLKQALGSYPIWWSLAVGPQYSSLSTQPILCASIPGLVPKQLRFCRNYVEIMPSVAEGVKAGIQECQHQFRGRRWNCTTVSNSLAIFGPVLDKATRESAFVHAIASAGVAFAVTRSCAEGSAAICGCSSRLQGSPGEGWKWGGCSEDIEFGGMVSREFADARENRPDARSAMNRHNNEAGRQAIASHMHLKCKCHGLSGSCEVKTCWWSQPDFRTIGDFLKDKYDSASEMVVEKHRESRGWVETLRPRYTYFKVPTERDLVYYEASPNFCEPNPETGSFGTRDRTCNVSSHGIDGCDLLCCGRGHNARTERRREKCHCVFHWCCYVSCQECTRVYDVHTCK

Turning to `Cc1cc(-c2ccccc2)cc(-c2ccccc2)[n+]1C`, on Protein Wnt-3a, the IC50 is 5.02 µM (active).

The CC50 is the concentration at which the toxic effect on the cells reaches its halfway point. Turning to `O=C1NC(=S)S/C1=C\c1cc(Cl)cc(Cl)c1O`, the values for the IC50 (in test [1]; at Phospholipase A2; at Cysteine protease ATG4B) were 65.4 µM (active), 14.8 µM (active) and 3.47 µM (active), respectively. Also, the CC50 in test [2] is 100 µM (active). Further, the EC50 in test [3] is 7.19 µM (active).

For orientation: AC50 means the midpoint of the concentration-response curve, whichever way the signal moves. Turning to `Cc1cccc(NC(=O)CN2C(=O)N/C(=C/c3cc(C)n(-c4ccncc4)c3C)C2=O)c1`, the AC50 in [4] was 18.7 µM (active).

With `Cc1ccc(C(=O)Nc2ccc(C(=O)N/N=C/c3cccnc3)cc2)cc1`, the IC50 is > 100 µM (inactive) in [5], > 100 µM (inactive) on Prothrombin and 30.5 µM (active) in test [6].

Turning to `COc1ccc(C#Cc2ccc3c(c2)O[C@@H](CN(C)C(=O)Nc2cccc(OC)c2)[C@H](C)CN([C@@H](C)CO)S3(=O)=O)cc1`, the IC50 in test [5] is > 100 µM (inactive); at Prothrombin it was 42.8 µM (active); in test [6], 30.5 µM (active). Moreover, the AC50 in test [7] is 3.01 µM (active).

Turning to `O=C(CNC(=O)c1ccc([N+](=O)[O-])cc1)N/N=C/c1c[nH]c2ccccc12`, the AC50 in test [4] is 30.2 µM (active).

Turning to `C/C=C1\NC(=O)[C@H](CC(N)=O)N(C)C(=O)C([C@@H](C)O)NC(=O)C(CCCc2ccc(OC)cc2)NC(=O)[C@H](C(C)C)NC(=O)/C(=C\C)NC(=O)[C@H](O)[C@@H](C[C@@H](O)CCCCCCC)NC(=O)[C@H](C)NC(=O)CN(C)C(=O)[C@H](CCC(N)=O)NC1=O` (stereo partly drawn) (cyclo(A[X1][X2]V[X3][ξThr(3R)][NMeN][Dhb]Q[Sar])), in test [4], the AC50 was > 100 µM (inactive).

These data come from ChEMBL document CHEMBL1201862, “PubChem BioAssay data set” (2004).
